Data from PubChem BioAssay (NCI).
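Interpolation was linear, between the two tested concentrations surrounding the appropriate level; five concentrations were tested over 48 hours in 96-well plates. GI50 is the concentration that inhibits growth by half. TGI denotes the concentration required for complete inhibition of growth.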 Where a SMILES comes first, the peptide text is derived from it. [ ]: non-standard residue; d: D form. The star is where a group is joined. Palmitoyl = CCCCCCCCCCCCCCCC(=O)*; Cbz = O=C(OCc1ccccc1)*; Aib = CC(C)(N)C(=O)O; OBn = c1ccc(CO*)cc1

Columns and labels:
Test in all cases: NCI tumour cell line growth inhibition, 48 h
HCT-15 colon = test system: HCT-15 colon
HCT-116 colon = test system: HCT-116 colon
SK-MEL-28 melanoma = test system: SK-MEL-28 melanoma
CAKI-1 renal = test system: CAKI-1 renal
SK-MEL-2 melanoma = test system: SK-MEL-2 melanoma
HCC-2998 colon = test system: HCC-2998 colon
SF-539 CNS = test system: SF-539 CNS
U251 CNS = test system: U251 CNS
OVCAR-3 ovarian = test system: OVCAR-3 ovarian
786-0 renal = test system: 786-0 renal
A498 renal = test system: A498 renal

Row | Structure (SMILES) | TGI (HCT-15 colon) | TGI (HCT-116 colon) | TGI (SK-MEL-28 melanoma) | TGI (CAKI-1 renal) | TGI (SK-MEL-2 melanoma) | TGI (HCC-2998 colon) | TGI (SF-539 CNS) | TGI (U251 CNS) | TGI (OVCAR-3 ovarian) | TGI (786-0 renal) | TGI (A498 renal) | GI50 (HCT-116 colon) | GI50 (A498 renal) | GI50 (SK-MEL-28 melanoma) | GI50 (CAKI-1 renal) | GI50 (SK-MEL-2 melanoma) | GI50 (HCC-2998 colon) | GI50 (SF-539 CNS) | GI50 (OVCAR-3 ovarian)
1 | CC(NC(=O)C(C)(C)NC(=O)C(CC(=O)OCc1ccccc1)NC(=O)OCc1ccccc1)C(N)=O (stereo not given) (Cbz-Asp(OBn)-[Aib]-Ala-NH2; configuration not given here) | > 100 µM | > 100 µM | > 100 µM | > 100 µM | > 100 µM | > 100 µM | > 100 µM | > 100 µM | > 100 µM | > 100 µM | – | – | – | – | – | – | – | – | –
2 | Cn1c2ccccc2c2c(=S)c3ccccc3ccc21 | > 100 µM | > 100 µM | > 100 µM | > 100 µM | – | > 100 µM | – | > 100 µM | > 100 µM | > 100 µM | > 100 µM | – | – | – | – | – | – | – | –
3 | CC(C)(C)N=C(N)NC#N | > 100 µM | > 100 µM | > 100 µM | > 100 µM | > 100 µM | > 100 µM | > 100 µM | > 100 µM | – | > 100 µM | – | – | – | – | – | – | – | – | –
4 | CCCCCCCCCCCCCCCC(=O)N1CCCC1C(=O)NCC(=O)NC(Cc1ccccc1)C(=O)N1CCCC1C(=O)NC(CO)C(=O)NC(Cc1ccc(O)cc1)C(=O)NC(CCCCN)C(=O)NC(CC(C)C)C(=O)NC(CCCN=C(N)N)C(=O)N1CCCC1C(=O)NCC(N)=O (stereo not given) (Palmitoyl-PGFPSYKLRPG-NH2; configuration not given here) | – | 31.9 µM | 50.3 µM | 50.6 µM | > 100 µM | 24.1 µM | 47.9 µM | – | > 100 µM | – | 93.2 µM | 14.8 µM | 32.8 µM | 13.9 µM | 20.9 µM | 46.2 µM | 10.4 µM | 20.5 µM | 33.3 µM
5 | O=C(NCCCl)O/N=C/c1cccnc1 | > 100 µM | > 100 µM | > 100 µM | > 100 µM | > 100 µM | > 100 µM | > 100 µM | > 100 µM | > 100 µM | – | > 100 µM | – | 78.2 µM | – | – | – | – | – | –
6 | CN(C)CCNC(=O)Cc1ccccc1Nc1c(Cl)cccc1Cl | 29.6 µM | 31.2 µM | 33.7 µM | – | – | 24.7 µM | 31.5 µM | 23.6 µM | 36.1 µM | 25.7 µM | – | – | – | – | – | – | – | – | –
7 | CN1CCN(Cc2cc3c(nn2)-c2ccccc2C3=O)CC1 | > 100 µM | > 100 µM | – | > 100 µM | > 100 µM | – | > 100 µM | > 100 µM | – | > 100 µM | – | – | – | – | – | – | – | – | –
8 | Cn1ncc2c(NCc3ccccc3)ncnc21 | > 100 µM | > 100 µM | > 100 µM | > 100 µM | – | > 100 µM | > 100 µM | > 100 µM | > 100 µM | > 100 µM | > 100 µM | – | – | – | – | – | – | – | –
9 | O[C@H]1[C@H](O)[C@@H](O)CN2CC[C@H](O)[C@H]12 | > 100 µM | > 100 µM | > 100 µM | > 100 µM | > 100 µM | > 100 µM | > 100 µM | > 100 µM | > 100 µM | – | > 100 µM | – | – | – | – | – | – | – | –
10 | [N-]=[N+]=CC(=O)OC(CCl)CCl | > 100 µM | > 100 µM | > 100 µM | – | > 100 µM | > 100 µM | – | > 100 µM | > 100 µM | > 100 µM | > 100 µM | – | – | – | – | – | – | – | –
11 | CC1(C)C=CC(=O)C(O)C(C)(C)C1=O (stereo not given) | > 100 µM | > 100 µM | > 100 µM | > 100 µM | > 100 µM | – | > 100 µM | > 100 µM | 79.6 µM | > 100 µM | > 100 µM | – | – | – | – | – | – | – | –
12 | O=C(NN1C(=O)CS(=O)(=O)C1c1ccc(C(F)(F)F)cc1)c1ccncc1 (stereo not given) | > 100 µM | > 100 µM | > 100 µM | > 100 µM | > 100 µM | > 100 µM | – | > 100 µM | – | – | > 100 µM | – | – | – | – | – | – | – | –
13 | CCOC(=O)CC/C(=N/Nc1ccc(Cl)cc1[N+](=O)[O-])C(=O)OCC | > 100 µM | > 100 µM | > 100 µM | – | > 100 µM | 71.5 µM | > 100 µM | > 100 µM | > 100 µM | > 100 µM | > 100 µM | – | – | – | – | – | – | – | –
14 | Cc1ccnc(NC(=S)Nc2ccc([N+](=O)[O-])cc2)c1 | > 100 µM | > 100 µM | > 100 µM | – | > 100 µM | > 100 µM | 85.4 µM | > 100 µM | – | > 100 µM | – | – | – | – | – | – | – | – | –
15 | CC(C(=O)COCc1ccccc1)P1(=O)OC(C)(C)CN1C(C)(C)C (stereo not given) | > 100 µM | > 100 µM | – | > 100 µM | – | > 100 µM | > 100 µM | – | > 100 µM | > 100 µM | > 100 µM | – | – | – | – | – | – | – | –
16 | C=C(C)[C@H]1C2=CC(C(=O)OC)=C(C[C@H](C(=C)C)[C@@H](O)[C@@H](O)C3=C[C@H]1OC3=O)O2 | > 100 µM | > 100 µM | – | > 100 µM | > 100 µM | – | > 100 µM | > 100 µM | > 100 µM | > 100 µM | > 100 µM | – | – | – | – | – | – | – | –
17 | CC12c3c4ccc(C=O)c3Oc3ccc(C=O)c(c31)Oc1ccc(C=O)c(c12)O4 | > 25 µM | > 25 µM | > 25 µM | > 25 µM | > 25 µM | – | > 25 µM | > 25 µM | > 25 µM | > 25 µM | > 25 µM | – | – | – | – | – | – | – | –
18 | O=C(c1ccccc1)c1ccc2c(c1)NC(=O)c1ccccc1SSc1ccccc1C(=O)N2 | > 100 µM | > 100 µM | > 100 µM | > 100 µM | > 100 µM | – | > 100 µM | > 100 µM | > 100 µM | > 100 µM | > 100 µM | – | – | – | – | – | – | – | –
19 | O=c1onc2n1-c1cc(Cl)ccc1C(=S)N1CSCC21 (stereo not given) | > 100 µM | > 100 µM | > 100 µM | > 100 µM | > 100 µM | > 100 µM | – | > 100 µM | > 100 µM | > 100 µM | > 100 µM | – | – | – | – | – | – | – | –
20 | OCCCc1ccc2c(c1)[C@H](CO)[C@@H](c1ccc(O)cc1)O2 | > 100 µM | > 100 µM | > 100 µM | – | > 100 µM | 37.3 µM | > 100 µM | > 100 µM | > 100 µM | > 100 µM | > 100 µM | – | – | – | – | – | – | – | –
21 | CC(C)C1=CC23CCC4C(C)(C(=O)O)CCCC4(C)C2CC1C1C(=O)N(CCCCCCN2C(=O)C4C5CC6C7(C)CCCC(C)(C(=O)O)C7CCC6(C=C5C(C)C)C4C2=O)C(=O)C13 (stereo not given) | 30.4 µM | 20.9 µM | 23.6 µM | – | 28.2 µM | 27.1 µM | – | 15.7 µM | 26.8 µM | – | 24.3 µM | – | – | – | – | – | – | – | –
